The text below walks through data of US6753176B2, “Aggrecan degrading metallo proteases” (Bristol-Myers Squibb Company, priority 1997, dated 2004).

One assay deals with ADMP. As to the kind of experiment: ADMP (aggrecanase) activity: cleavage of purified bovine aggrecan monomers at Glu373-Ala374, BC-3 neoepitope antibody Western. The assay is classed as biochemical. As for the experimental part: ADMPs were detected at this point by their ability to cleave purified bovine aggrecan monomers isolated from bovine nasal cartilage by the following procedure: Aggrecan was extracted from the cartilage by stirring at 4° C. for 48 hours in 10 volumes of 4M guanidine-HCl in 0.05 M sodium acetate, pH 5.8, containing the protease inhibitors, 0.01M EDTA (EDTA is ethylenediaminetetraacetic acid), 0.1M 6-aminohexanoic acid, 2 mM PMSF and 0.05M benzamidine HCl. Aggrecan monomers were isolated by equilibrium density gradient centrifugation in cesium chloride [Hascall, V. C. and Sajdera, S. W. (1969) J. Biol. Chem. 244, 2384-2396.] and the bottom of this gradient (d>1.54 g/ml) containing the aggrecan monomers, was dialyzed at 4° C. against water and lyophilized.
These aggrecan monomers (500 nM) were incubated at 37° C. for at least 4 hr with ADMPs eluted from the Macro S support column in a final volume of 200 ul in Buffer B (Buffer B contains 50 mM Tris, pH 7.6, containing 0.1 M NaCl and 10 mM CaCl2), quenched with 20 mM EDTA and analyzed for aggrecan fragments produced exclusively by cleavage at the Glu^373-Ala^374 bond within the aggrecan core protein using the monoclonal antibody, BC-3 (Hughes, C. E., et al., Biochem. J. 306:799-804, 1995). This antibody recognizes aggrecan fragments with the N-terminal sequence A^374RGSVIL . . . , generated upon cleavage by ADMPs. The BC-3 antibody recognizes this neoepitope only when it is the N-terminus and not when it is present internally within aggrecan fragments or within the intact aggrecan core protein. […]
After digestion, the samples were precipitated with 5 volumes of acetone and reconstituted in an appropriate volume of SDS-PAGE sample buffer, loaded on 4-12% gradient gels and then separated by SDS-PAGE under non reducing conditions, transferred overnight to nitrocellulose and immunolocated with 1:1000 dilution of the monoclonal antibody BC-3. […] BC-3-reactive aggrecan fragments were then quantified by scanning densitometry.

In a further assay the target is T1, ADMP-1 (Bos taurus, UniProt Q9TT93).
T1 construct: from tissue; host or cells: conditioned medium of IL-1-stimulated bovine nasal cartilage, purified over Macro S, gelatin-agarose and TIMP-1/protein A
T1 sequence (Q9TT93 213-839): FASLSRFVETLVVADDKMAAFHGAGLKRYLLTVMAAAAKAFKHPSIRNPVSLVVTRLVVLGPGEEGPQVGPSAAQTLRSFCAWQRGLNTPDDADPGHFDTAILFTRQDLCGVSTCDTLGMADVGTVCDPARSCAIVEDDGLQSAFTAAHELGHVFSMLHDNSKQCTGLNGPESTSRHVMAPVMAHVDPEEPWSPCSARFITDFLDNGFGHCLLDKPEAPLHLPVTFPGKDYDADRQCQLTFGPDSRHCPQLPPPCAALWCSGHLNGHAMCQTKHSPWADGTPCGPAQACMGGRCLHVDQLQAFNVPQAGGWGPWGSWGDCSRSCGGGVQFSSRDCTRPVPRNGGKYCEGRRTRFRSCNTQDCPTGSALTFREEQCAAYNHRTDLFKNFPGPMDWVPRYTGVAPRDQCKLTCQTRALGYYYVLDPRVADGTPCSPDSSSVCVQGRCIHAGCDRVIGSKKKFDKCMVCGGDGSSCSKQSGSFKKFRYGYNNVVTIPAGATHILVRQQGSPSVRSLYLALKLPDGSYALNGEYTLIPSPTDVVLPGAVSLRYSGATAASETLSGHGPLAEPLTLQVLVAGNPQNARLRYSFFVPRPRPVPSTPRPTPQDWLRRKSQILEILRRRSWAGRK
The assay can be described thus: Binding of 67 kDa ADMP-1 doublet to aggrecanase-inhibitor hydroxamate affinity resin in the presence of inhibitor. Also on record: species or system bovine. An excerpt:
An ADMP-inhibitor hydroxamate affinity resin was produced in the following manner. POROS 20-NH perfusive chromatographic media (Perseptive Biosystems), a highly crosslinked poly(styrene divinylbenzene) polymer, was mixed overnight with four equivalents of Fmoc-beta-alanine, four equivalents HBTU (O-Benzotriazole-N,N,N′,N′-tetramethyl-uronium hexafluorophosphate), and eight equivalents DIEA (N,N diisopropylethylamine) in DMF (dimethylformamide). The resin was rinsed several times with DMF, then the FMOC group was removed with 20% piperidine/DMF. This coupling/deprotecting scheme was repeated three more times, resulting in four beta-alanine residues coupled to the resin. After the final piperidine deprotection, 1.5 equivalents of a t-butyl protected hydroxamic acid capable of inhibiting ADMP activity was coupled with 1.5 equivalents HBTU and 3 equivalents DIEA in DMF. After rinsing with DMF and CH2Cl2, the t-butyl group was removed by mixing overnight with TFA (trifluoroacetic acid), leaving the hydroxamic acid. The resin was thoroughly rinsed with CH2Cl2 and dried under vacuum.
The eluate from the protein A column was neutralized with 1 M Tris base to pH 7.5 and then incubated for 2 hours with the aggrecanase-inhibitor hydroxamate resin at a ratio of 1 mg resin for every 1 ml of eluate. […]

In assay [1] the test system is matrix metalloproteinases. The assay can be described thus: Inhibition of matrix metalloproteinases. It is filed as biochemical.

Entries after “also recorded” stand apart in the source; their conditions may differ.

Turning to `CNC(=O)[C@@H]1CCCCNC(=O)CC[C@H](C(=O)NO)[C@H](CC(C)C)C(=O)N1` [Compound B, (2S,11S, 12S)-12-isobutyl-2-[(methylamino)carbonyl]-11[(hydroxylamino)carbonyl]-8,13-dioxo-1,7-diazacyclotridecane], the “inhibition of ADMP activity” value with ADMP is recorded as “potent ADMP inhibitor”. Also, the “binding of 67 kDa ADMP-1 doublet to aggrecanase-inhibitor hydroxamate resin” value on ADMP-1 (10 uM compound included during affinity purification) was “blocked”.
As to `CNC(=O)[C@H]1CCCNN1C(=O)[C@@H](CC(C)C)[C@@H](C)C(=O)NO` [Compound A, N3-methyl-(3R)-2-[(2S)-2-[(1R)-2-(hydroxyamino)-1-methyl-2-oxoethyl]-4-methylpentanoyl]hexahydro-3-pyridazinecarboxamide], the “inhibition of matrix metalloproteinases” value in assay [1] was “broad spectrum inhibitor; also recorded: potent inhibitor”. In the assay on ADMP, the “inhibition of ADMP activity” value was “ineffective; also recorded: inactive”. Further, at ADMP-1 (compound present during affinity purification), the “binding of 67 kDa ADMP-1 to the affinity resin” value is on record as “not affected”.
Take “tissue inhibitor of metalloproteinases-1 [TIMP-1]”: the “inhibition of ADMP activity” value in the assay on ADMP is listed as “inhibited”.
